Experiments:
male mice = experiment: Determination of the minimum toxic dose; assay type: in vivo; conditions: max. dose 300 mg/kg, 24 h
Protocol: 3. Determination of the minimum toxic dose.
Male mice of 20 to 25 g weight were given maximal doses of 300 mg/kg of test substance per os. The animals were carefully watched over a period of three hours for toxicity symptoms. Over a period of twenty-four hours after administration, all symptoms and deaths were recorded. Associated symptoms were also watched and recorded. If death or strongly toxic symptoms were noted, further mice were given increasingly lower doses. The lowest dose which brought about death or strongly toxic symptoms was reported as the minimum toxic dose.

[1] = test system: oxygen radical-forming activity of activated peritoneal exudate cells (PEC) of mice; experiment: Peak chemiluminescence (CL) test: inhibition of oxygen radical liberation from activated peritoneal exudate cells; assay type: cell-based; conditions: Mus musculus, 10^-4 Mol substance/l, added at peak of cell activity, read-out: Inhibition in vitro of the oxygen radical liberation, Chemiluminescence Test % inhibition, Pk. CL
Protocol: 1. To determine the inhibiting effect on the oxygen radical-forming activity of inflamed cells, the in vitro inhibition of the release of oxygen radicals from activated peritoneal exudate cells (=PEC) of mice was determined in the chemiluminescence (CL) test according to the method of Mueller-Peddinghaus (Int. J. Immunopharmac. 6, 455-466 (1984)). […] The intensity of the chemiluminescence is a measurement of the oxygen radical content in the suspension and thus the degree of activity of the inflamed cells. In this, three functionally different parameters are detected, the spontaneous CL, the induced CL and the peak CL. The spontaneous CL and the induced CL on the one hand and the peak CL on the other hand differ from each other because in the first two parameters the test substances are in contact with the cells for a 30 minute preincubation period before the inflammation irritant is added, whereas with the peak CL the cells are first stimulated, and the test substance is added at the peak of their activity. The measurement of the spontaneous CL thus detects the influence of the test substance on the relative rest activity of inflamed cells, the induced CL represents the effect of the test substances on the activatability of the cells and the inhibition of the peak CL indicates the effect of the test substances on the maximum activity of the inflamed cells. 1.1 Production of PEC suspension used in the test. In order to induce the PEC formation, female mice of 20-25 g body weight were each injected i.p. with 2 ml of a 3% solution of thioglycollate in sterile isotonic sodium chloride solution. Twenty four hours after the thioglycollate injection the cells, which predominantly consisted of polymorphonuclear leucocytes, were recovered by washing out of the abdominal cavity and washed twice. As cell culture medium there was added a commercially available solution under the designation RPMI 1640 (pH 7.2) (produced by Flow Laboratories, […], Germany), which contains 10% fetal calf serum (FCS, produced by Seromed GmbH, Munich, Germany) 18 μmol/l sodium bicarbonate and 2 μmol/l L-glutamine. The cell pellets of four animals each time were resuspended in cell culture medium, collected together and the suspension was made up to 2×10^6 cells per ml with cell culture medium. The cell suspensions were kept under ice cooling until their use the same day. 1.2 Production of the complement opsonized zymosan (=ZyC3 b) suspension used for activation. 200 mg zymosan (glycoprotein mixture isolated from the cell walls of brewer's yeast, Sacchomyces […], produced by Sigma Chemical Co., Munich, Germany) were suspended in 10 ml phosphate buffer solution according to Dulbecco (produced by Flow Laboratories, […], Germany), well stirred and heated for thirty minutes in a water bath to 100° C. After cooling, it was centrifuged for five minutes at 4° C. and at 600 ×g and the supernatant was discarded. The sediment was resuspended in 50 ml human serum and incubated for thirty minutes at 37° C. in a shaking water bath. Then it was centrifuged for five minutes at 600 ×g and 420 C., the supernatant decanted and the sediment washed with phosphate buffer solution. The working suspension of 8×10^-3 g ZyC3 b/ml was produced from the sediment by dilution with phosphate buffer solution (Mueller-Peddinghaus et al., Zbl. Vet. Med. B. 30, 559-575). 1.3 Chemiluminescence (CL) measurement (Peak-CL). The PEC suspension was divided into samples of 100 μl each, placed in test tubes, and these were incubated for ten minutes at a temperature of 3720 C. in a measurement device (Chemiluminescence analyzer, Laboratorium Prof. Berthold, Wildbad, Germany). Then in order to amplify the chemiluminescence, 100 μl lucigenin solution was added (final concentration 1.54×10^-4 mol/l) and incubated for 16 more minutes. The cells were then activated by the addition of 100 μl of the ZyC3 b suspension produced as described in section 1.2 plus 100 μl phosphate buffer solution. […]

[2] = test system: oxygen radical-forming activity of peritoneal exudate cells (PEC) of mice; experiment: Spontaneous CL and induced CL chemiluminescence test: inhibition of oxygen radical liberation from peritoneal exudate cells (30 min preincubation); assay type: cell-based; design: concentration or dose not given beside the values; conditions: for Inhibition in vitro of the oxygen radical liberation, Chemiluminescence Test % inhibition, Ind. CL: induced CL, after ZyC3b activation; for Inhibition in vitro of the oxygen radical liberation, Chemiluminescence Test % inhibition, Spnt. CL: spontaneous CL, before ZyC3b
Protocol: 1. To determine the inhibiting effect on the oxygen radical-forming activity of inflamed cells, the in vitro inhibition of the release of oxygen radicals from activated peritoneal exudate cells (=PEC) of mice was determined in the chemiluminescence (CL) test according to the method of Mueller-Peddinghaus (Int. J. Immunopharmac. 6, 455-466 (1984)). […] The intensity of the chemiluminescence is a measurement of the oxygen radical content in the suspension and thus the degree of activity of the inflamed cells. In this, three functionally different parameters are detected, the spontaneous CL, the induced CL and the peak CL. The spontaneous CL and the induced CL on the one hand and the peak CL on the other hand differ from each other because in the first two parameters the test substances are in contact with the cells for a 30 minute preincubation period before the inflammation irritant is added, whereas with the peak CL the cells are first stimulated, and the test substance is added at the peak of their activity. The measurement of the spontaneous CL thus detects the influence of the test substance on the relative rest activity of inflamed cells, the induced CL represents the effect of the test substances on the activatability of the cells and the inhibition of the peak CL indicates the effect of the test substances on the maximum activity of the inflamed cells. 1.1 Production of PEC suspension used in the test. In order to induce the PEC formation, female mice of 20-25 g body weight were each injected i.p. with 2 ml of a 3% solution of thioglycollate in sterile isotonic sodium chloride solution. Twenty four hours after the thioglycollate injection the cells, which predominantly consisted of polymorphonuclear leucocytes, were recovered by washing out of the abdominal cavity and washed twice. As cell culture medium there was added a commercially available solution under the designation RPMI 1640 (pH 7.2) (produced by Flow Laboratories, […], Germany), which contains 10% fetal calf serum (FCS, produced by Seromed GmbH, Munich, Germany) 18 μmol/l sodium bicarbonate and 2 μmol/l L-glutamine. The cell pellets of four animals each time were resuspended in cell culture medium, collected together and the suspension was made up to 2×10^6 cells per ml with cell culture medium. The cell suspensions were kept under ice cooling until their use the same day. 1.2 Production of the complement opsonized zymosan (=ZyC3 b) suspension used for activation. 200 mg zymosan (glycoprotein mixture isolated from the cell walls of brewer's yeast, Sacchomyces […], produced by Sigma Chemical Co., Munich, Germany) were suspended in 10 ml phosphate buffer solution according to Dulbecco (produced by Flow Laboratories, […], Germany), well stirred and heated for thirty minutes in a water bath to 100° C. After cooling, it was centrifuged for five minutes at 4° C. and at 600 ×g and the supernatant was discarded. The sediment was resuspended in 50 ml human serum and incubated for thirty minutes at 37° C. in a shaking water bath. Then it was centrifuged for five minutes at 600 ×g and 420 C., the supernatant decanted and the sediment washed with phosphate buffer solution. The working suspension of 8×10^-3 g ZyC3 b/ml was produced from the sediment by dilution with phosphate buffer solution (Mueller-Peddinghaus et al., Zbl. Vet. Med. B. 30, 559-575). 1.3 Chemiluminescence (CL) measurement (Peak-CL). […] At the end of this preincubation phase, 100 μl lucigenin were added, and in the course of the subsequent sixteen minute incubation phase the spontaneous CL parameter was determined with two measuring points. Then 100 μl ZyC3 b+100 μl phosphate buffer were added, and during the course of the subsequent twenty-four minute cell activation the induced CL parameter was measured with three measuring points. All measurements were determined twice. The parameters spontaneous CL and induced CL were determined on the same day with two separate cell pools.

[3] = test system: carrageenin foot edema in male Wistar rats; experiment: Inhibition of carrageenin foot edema in rats (Winter et al.); assay type: in vivo; conditions: Rattus norvegicus, 2 h after irritant
Protocol: A similar volume of isotonic sodium chloride solution was injected in the left hind foot. The volume of the each rat's foot was measured plethysmometrically both before and two hours after administration of the irritant, and the swelling of the foot volume after the carrageenin application was compared to the foot which was treated only with sodium chloride solution The inhibition of edema formation by the test substances in the treated animals was compared in percentage terms with the animals of the untreated control group.

Row | SMILES | Minimal toxic dose mg/kg mouse p.o. (male mice) [mg/kg] | inhibition at 100 µM (stock) [1] [%] | Inhibition in vitro of the oxygen radical liberation, Chemiluminescence Test % inhibition, Ind. CL [2] [%] | Inhibition in vitro of the oxygen radical liberation, Chemiluminescence Test % inhibition, Spnt. CL [2] [%] | inhibition in vivo at 215 µmol/kg ([3]; ip, 215 μmol/kg i.p.) [%] | inhibition in vivo at 215 µmol/kg ([3]; po, 215 μmol/kg p.o.) [%] | inhibition in vivo at 100 µmol/kg ([3]; po, 100 μmol/kg p.o.) [%]
1 | O=C(NC1CCN(Cc2ccccc2)CC1)c1c(-c2ccccc2)oc2ccccc2c1=O [Example 18b] | 300 | 41 | 50 | 30 |  |  | 
2 | O=C(NCCCCN1CCN(Cc2ccccc2)CC1)c1c(-c2ccccc2)oc2ccccc2c1=O [Example 23] | 300 | 63 | 88 | 95 |  |  | 
3 | COc1cc(-c2oc3ccccc3c(=O)c2C(=O)NCCCC[N+]2([O-])CC[N+]([O-])(Cc3ccccc3)CC2)cc(OC)c1OC (stereo not drawn) [Example 52] |  |  |  |  | 53 |  | 
4 | CCN(CC)CCNC(=O)c1c(-c2ccccc2)oc2ccccc2c1=O [Example 22b] | 300 | 25 | 43 | 67 |  |  | 
5 | COc1ccc(-c2oc3ccccc3c(=O)c2C(=O)N2CCN(C)CC2)cc1 [Example 28] | > 300 | 5 | 29 | 54 |  |  | 
6 | COc1cc(-c2oc3ccccc3c(=O)c2C(=O)NCCCN2CCOCC2)cc(OC)c1OC [Example 46] | > 300 | 11 | 25 | 52 |  |  | 
7 | CCCCCCCCCCCCCCCCOc1ccc(-c2oc3ccccc3c(=O)c2C(=O)N2CCN(Cc3ccccc3)CC2)cc1 [Example 36] |  |  |  |  |  | 30 | 
8 | O=C(c1c(-c2ccccc2)oc2ccccc2c1=O)N1CC[N+]([O-])(Cc2ccccc2)CC1 [Example 5, 3-[(4-benzylpiperazin-1-yl)-carbonyl]-flavone N-oxide] | > 300 | 12 | 25 | 49 |  |  | 
9 | O=C(NCCN1CCCC1)c1c(-c2ccccc2)oc2ccccc2c1=O [Example 20b] | 100 | 27 | 43 | 72 |  |  | 
10 | CCC(=O)Oc1cc(-c2oc3ccccc3c(=O)c2C(=O)N2CCN(c3ccccn3)CC2)cc(OC(=O)CC)c1OC(=O)CC [Example 56] |  | 37 | 70 | 52 |  |  | 
11 | CN1CCN(C(=O)c2c(-c3ccccc3)oc3ccccc3c2=O)CC1 [Example 16a] |  |  |  |  |  |  | 20
12 | COc1cc(-c2oc3ccccc3c(=O)c2C(=O)OCCN2CCCC2)cc(OC)c1OC [Example 49] | 300 | 41 | 64 | 86 |  |  | 
13 | COc1cc(-c2oc3ccccc3c(=O)c2C(=O)OCCN2CCN(c3ccccn3)CC2)cc(OC)c1OC [Example 47] | 100 | 70 | 76 | 78 |  |  | 

Source: patent US4886806A, “Flavone-3-carboxylic acids compounds and pharmaceutical compositions containing them” (Kali-Chemie Pharma GmbH, priority 1987, dated 1989)
